In data set [1] the test system is NOD mice with spontaneous diabetes. Nature of the data set: Therapy regimen of LSF and INGAP in spontaneously diabetic NOD mice maintained on insulin pellets. The data set is classed as in vivo. The conditions noted are these: for blood glucose levels (non-fasting) at the end of treatments: FIG. 3, diabetic NOD mice, LSF 27 mg/kg/day continuous sc infusion, INGAP 500 μg qd ip; for remission rate of diabetes: FIG. 5, diabetic NOD mice observed after all therapy stopped. Here is the method: The following example illustrates a therapy regimen (FIG. 1) involving INGAP peptide and LSF for building and preserving β-cell mass and increasing insulin production in a mammal. NOD mice were monitored for diabetes by measuring blood glucose levels. Mice were allowed to develop spontaneous diabetes, which usually occurs around the age of 18 weeks. Non-fasting blood glucose levels >250 mg/dL measured for 3 different days was considered evidence of diabetes onset. Shortly after diagnosing diabetes, the NOD mice received an insulin pellet implanted subcutaneously in order to maintain them during the treatment period of 6 to 7 weeks. The pellet provides 0.1 U/d of bovine insulin. The mice were then assigned to one of 5 treatment groups: Group 1—Normal saline via continuous subcutaneous infusion (placebo). The saline was delivered via an implantable subcutaneous osmotic mini-pump. The mice received the placebo for 4 weeks and continued on insulin for another 2 weeks. The insulin was then stopped, and the mice observed to determine if the treatment was effective. Group 2—LSF (27 mg/kg/day via continuous subcutaneous infusion) alone. The LSF was delivered via an implantable subcutaneous osmotic mini-pump. The mice received LSF for 4 weeks, continued on insulin for another 2 weeks, and then observed to determine if the treatment was effective. Group 3—INGAP (500 μg qd ip) alone. The mice received INGAP and insulin for 6 weeks, the treatment was then stopped, and the mice observed to determine if the treatment was effective. Group 4—LSF (27 mg/kg/day via continuous subcutaneous infusion) plus INGAP (500 μg qd ip) administered concomitantly. The LSF was delivered via an implantable subcutaneous osmotic mini-pump. The mice received LSF for 4 weeks and INGAP and insulin for 6 weeks. The treatments were then stopped and the mice observed to determine if the treatment was effective. Group 5—LSF (27 mg/kg/day via continuous subcutaneous infusion) for a week of pretreatment as monotherapy. Here the immune system was first treated to ‘cool it off’ so that any new islets would be growing in a less hostile environment. INGAP was then added to the treatment regimen (at 500 μg qd ip) and administered concomitantly with the LSF for an additional 5 weeks. LSF treatment was discontinued at week 6. INGAP and Insulin were continued for 1 more week until week 7. All therapy was then discontinued and the mice observed to determine if the treatment was effective. See treatment timeline depicted in FIG. 2.

Data set [2] has as its system streptozotocin-induced diabetic mice. The conditions noted are these: cited from earlier work.
For data set [3] the following is noted: cited from earlier work.
Data set [4] concerns non-obese diabetic (NOD) mice. The conditions noted are these: LSF alone, when hyperglycemia became detectable; cited from earlier work.

Entries after “also recorded” stand apart in the source; their conditions may differ. Like-named read-outs stand apart in the source and are kept apart here. Ends that are not written are not given here.

Take IGLHDPSHGTLPNGS [INGAP]: in data set [1], the “blood glucose levels (non-fasting) at the end of treatments” value was “little or no effect” and the “remission rate of diabetes” value is listed as 10%. The “insulin production of treated animals” value in data set [1] (FIG. 15) is “producing insulin”. For the same compound, the “effect on islet formation and glycemia” value in data set [2] is “restore euglycemia”. Further, the “safety in clinical studies” value in data set [3] (in vivo) was “safe”.

As to `C[C@@H](O)CCCCn1c(=O)c2c(ncn2C)n(C)c1=O` [LSF, 1-(5-R-hydroxyhexyl)-3,7-dimethylxanthine], in data set [1], the “blood glucose levels (non-fasting) at the end of treatments” value is on record as “little or no effect” and the “remission rate of diabetes” value is reported as “no remission; also recorded: No mice”. The “reversal of autoimmune diabetes” value in data set [4] was “did not reverse”. In addition, the “safety in clinical studies” value in data set [3] (clinical studies, open IND on file with FDA) was “safe”.

The record behind these values is patent US20100331248A1, “COMPOSITIONS AND METHODS FOR TREATING DIABETES USING LISOFYLLINE AND ISLET NEOGENESIS ASSOCIATED PEPTIDE” (DIAKINE THERAPEUTICS, INC., priority 2008, published 2010).
